The source of these data is US20250188085A1, “COMPOSITIONS AND METHODS FOR INHIBITION OF RAS” (THERAS, INC., priority 2022, published 2025).

Molecules are shown by their SMILES. Some results are limits rather than exact numbers.

In experiment [1] the target is T1, GppNHp-loaded KRAS4b (amino acids 1-169) G12C/C118S protein (Homo sapiens, UniProt P01116, C118S/G12C).
T1 construct: KRAS4b (amino acids 1-169) G12C/C118S protein; made in house
Description: Covalent cysteine 12 modification by MALDI-TOF MS, GppNHp-loaded KRAS G12C. In kind it is binding. As to conditions: 15 minutes reaction time point. The gist of the method: (§1)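 KRAS4b 1-169 G12C/C118S loaded with GDP, GppNHp or GTP was used at 1 μM in 20 mM HEPES, 150 mM NaCl, 1 mM MgCl2, pH 7.3, and incubated with compound (5 mM DMSO stock) at room temperature in the dark. % modification at 15 min is adduct peak height over total protein peak heights by linear-mode MALDI-TOF.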

In experiment [2] the target is T2, GTP-loaded KRAS4b (amino acids 1-169) G12C/C118S protein (Homo sapiens, UniProt P01116, C118S/G12C).
T2 construct: KRAS4b (amino acids 1-169) G12C/C118S protein; made in house
Description: Covalent cysteine 12 modification by MALDI-TOF MS, GTP-loaded KRAS G12C. In kind it is binding. The note with it: 15 minutes reaction time point. The essentials:
as §1

Experiment [3] has as its target T3, GDP-loaded KRAS4b (amino acids 1-169) G12C/C118S protein (Homo sapiens, UniProt P01116, C118S/G12C).
T3 construct: KRAS4b (amino acids 1-169) G12C/C118S protein; made in house
The experiment is described as follows: Covalent cysteine 12 modification by MALDI-TOF MS, GDP-loaded KRAS G12C. In kind it is binding. The note with it: 15 minutes reaction time point. The essentials: as §1

Experiment [4] deals with T4, Avi-KRAS G12C (1-169) GppNHp/RAF1 RBD-3×FLAG (52-151) (Homo sapiens, UniProt P01116, G12C).
T4 construct: Avi-KRAS G12C (1-169) GppNHp/RAF1 RBD-3×FLAG (52-151)
Description: Raf1 RBD-KRAS G12C-GppNHp disruption (protein:protein interaction HTRF assay). The experiment is classed as biochemical. The gist of the method:
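HTRF measuring disruption of 50 nM Avi-KRAS G12C (1-169) loaded with GppNHp binding RAF1 RBD-3×FLAG (52-151), in pH 7.5 Tris buffer with 5 mM MgCl2, 0.1% BSA, 10% DMSO. KRAS preincubated with compound 1 h, then RBD 1 h, then detection reagents 1 h, all at room temperature. Compound titration 30-0.02 μM; activity expressed as percent of DMSO control.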

The next experiment deals with pERK in NCI-H358 cells. The experiment is described as follows: Cell-based pERK HTRF assay. As to conditions: Homo sapiens, NCI-H358, 0.5 h, 30 min incubation, read-out: pERK in NCI-H358 cell inhibition IC50. The essentials: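 Cells seeded at 4×10^4/well in RPMI with 10% FBS, then next day treated for 30 min with a 9-point, 3-fold series from 75 μM top concentration at 0.25% DMSO. Lysates were read for pERK by HTRF (d2/Eu cryptate antibodies) after 4–24 h at room temperature, emission at 615 nm.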

On to `C=CC(=O)N1CC[C@@H](Oc2nc(OC[C@@]34CCCN3C[C@H](F)C4)nc3c(F)c(-c4ccc(F)c5sc(N)c(C#N)c45)c(Cl)cc23)[C@@H]1CC` [Compound 117], for which, in experiment [1], the “GppNHp-KRAS G12C percent of modification” value is “D (percent of modification <10%)”. Besides, the “GTP-KRAS G12C percent of modification” value in experiment [2] is on record as “D (percent of modification <10%)”. Moreover, the “GDP-KRAS G12C percent of modification” value in experiment [3] is “C (10%≤modification <50%)”. Further, the IC50 in experiment [4] is > 20000 nM; in the experiment with pERK in NCI-H358 cells it was > 1000 nM.

Consider `C=CC(=O)N1CC[C@@H](Oc2nc(OC[C@@]34CCCN3C[C@H](F)C4)nc3c(F)c(-c4ccc(F)c5sc(N)c(C#N)c45)ccc23)[C@@H]1C` [Compound 118], for which the “GppNHp-KRAS G12C percent of modification” value in experiment [1] is “D (percent of modification <10%)”. The “GTP-KRAS G12C percent of modification” value in experiment [2] is listed as “D (percent of modification <10%)”. Also, the “GDP-KRAS G12C percent of modification” value in experiment [3] was “A (percent of modification ≥70%)”. For the same compound, the half-inhibitory concentration (IC50) in experiment [4] was 500 to 5000 nM; in the experiment with pERK in NCI-H358 cells, > 1000 nM.

As for `C=CC(=O)N1CC[C@@H](Oc2nc(OC[C@@]34CCCN3C[C@H](F)C4)nc3cc(-c4ccc(F)c5sc(N)c(C#N)c45)c(F)cc23)[C@@H]1C` [Compound 119], the “GppNHp-KRAS G12C percent of modification” value in experiment [1] is reported as “D (percent of modification <10%)”. Moreover, the “GTP-KRAS G12C percent of modification” value in experiment [2] is on record as “D (percent of modification <10%)”. For the same compound, the “GDP-KRAS G12C percent of modification” value in experiment [3] is listed as “B (50≤percent of modification <70%)”. Further, the IC50 in experiment [4] was 5000 to 20000 nM; in the experiment with pERK in NCI-H358 cells, > 1000 nM.

Turning to `C=CC(=O)N1CC[C@@H](Oc2nc(OC[C@@]34CCCN3C[C@H](F)C4)nc3cc(-c4ccc(F)c5sc(N)c(C#N)c45)c(C#N)cc23)[C@@H]1C` [Compound 120], the “GppNHp-KRAS G12C percent of modification” value in experiment [1] is given as “D (percent of modification <10%)”. Besides, the “GTP-KRAS G12C percent of modification” value in experiment [2] is “D (percent of modification <10%)”. In experiment [3], the “GDP-KRAS G12C percent of modification” value is recorded as “B (50≤percent of modification <70%)”. The IC50 in experiment [4] fell in the range of 5000 to 20000 nM; with pERK in NCI-H358 cells it was 100 to 1000 nM.

Take `C=CC(=O)N1CC[C@@H](Oc2nc(OC[C@@]34CCCN3C[C@H](F)C4)nc3c(F)c(-c4ccc(F)c5sc(N)c(C#N)c45)c(Cl)cc23)[C@@H]1C` [Compound 121]: the “GppNHp-KRAS G12C percent of modification” value in experiment [1] is on record as “C (10%≤modification <50%)”. The “GTP-KRAS G12C percent of modification” value in experiment [2] is reported as “D (percent of modification <10%)”. For the same compound, in experiment [3], the “GDP-KRAS G12C percent of modification” value is “C (10%≤modification <50%)”. The IC50 in experiment [4] was ≤ 500 nM; in the experiment with pERK in NCI-H358 cells, 100 to 1000 nM.

In the case of `C=CC(=O)N1CC[C@@H](Oc2nc(OC[C@@]34CCCN3C[C@H](F)C4)nc3cc(-c4ccc(F)c5sc(N)c(C#N)c45)c(F)cc23)[C@@H]1COC` [Compound 122], in experiment [1], the “GppNHp-KRAS G12C percent of modification” value is listed as “D (percent of modification <10%)”. The “GTP-KRAS G12C percent of modification” value in experiment [2] was “D (percent of modification <10%)”. The “GDP-KRAS G12C percent of modification” value in experiment [3] is on record as “C (10%≤modification <50%)”. Further, the IC50 in experiment [4] is > 20000 nM; with pERK in NCI-H358 cells, > 1000 nM.

With `C=CC(=O)N1CC[C@@H](Oc2nc(OC[C@@]34CCCN3C[C@H](F)C4)nc3c(F)c(-c4ccc(F)c5sc(N)c(C#N)c45)c(C(F)(F)F)cc23)[C@@H]1C` [Compound 123], in experiment [1], the “GppNHp-KRAS G12C percent of modification” value is recorded as “C (10%≤modification <50%)”. Moreover, the “GTP-KRAS G12C percent of modification” value in experiment [2] is “D (percent of modification <10%)”. Further, in experiment [3], the “GDP-KRAS G12C percent of modification” value is recorded as “B (50≤percent of modification <70%)”. Moreover, the IC50 in experiment [4] is ≤ 500 nM; with pERK in NCI-H358 cells it was ≤ 100 nM.

For `C=CC(=O)N1CC[C@@H](Oc2nc(OC[C@@]34CCCN3C[C@H](F)C4)nc3c(Cl)c(-c4ccc(F)c5sc(N)c(C#N)c45)ncc23)[C@@H]1C` [Compound 124], in experiment [1], the “GppNHp-KRAS G12C percent of modification” value is given as “D (percent of modification <10%)”. Further, the “GTP-KRAS G12C percent of modification” value in experiment [2] was “D (percent of modification <10%)”. In addition, the “GDP-KRAS G12C percent of modification” value in experiment [3] is given as “B (50≤percent of modification <70%)”. For the same compound, the IC50 in experiment [4] lay within 500 to 5000 nM; in the experiment on pERK in NCI-H358 cells it was 100 to 1000 nM.

In the case of `C=CC(=O)N1CC[C@@H](Oc2nc(OC[C@@]34CCCN3C[C@H](F)C4)nc3c(F)c(-c4ccc(F)c5sc(N)c(C#N)c45)ccc23)[C@@H]1COC` [Compound 125], the “GppNHp-KRAS G12C percent of modification” value in experiment [1] was “D (percent of modification <10%)”. Further, the “GTP-KRAS G12C percent of modification” value in experiment [2] is recorded as “D (percent of modification <10%)”. Moreover, the “GDP-KRAS G12C percent of modification” value in experiment [3] was “C (10%≤modification <50%)”. For the same compound, the figures for the IC50 (in experiment [4]; in the experiment with pERK in NCI-H358 cells) were > 20000 nM and > 1000 nM, respectively.

With `C=CC(=O)N1CC[C@@H](Oc2nc(OC[C@@]34CCCN3C[C@H](F)C4)nc3c(F)c(-c4ccc(F)c5sc(N)c(C#N)c45)c(Cl)cc23)[C@@H]1COC` [Compound 126], the “GppNHp-KRAS G12C percent of modification” value in experiment [1] is reported as “D (percent of modification <10%)”. The “GTP-KRAS G12C percent of modification” value in experiment [2] is given as “D (percent of modification <10%)”. Also, the “GDP-KRAS G12C percent of modification” value in experiment [3] is listed as “A (percent of modification ≥70%)”. Besides, the IC50 in experiment [4] was 500 to 5000 nM; with pERK in NCI-H358 cells, 100 to 1000 nM.

Turning to `C=CC(=O)N1CC[C@@H](Oc2nc(OC[C@@]34CCCN3C[C@H](F)C4)nc3c(F)c(-c4ccc(F)c5sc(N)c(C#N)c45)c(C(F)(F)F)cc23)[C@@H]1COC` [Compound 127], the “GppNHp-KRAS G12C percent of modification” value in experiment [1] is “D (percent of modification <10%)”. Also, the “GTP-KRAS G12C percent of modification” value in experiment [2] was “D (percent of modification <10%)”. In addition, the “GDP-KRAS G12C percent of modification” value in experiment [3] is on record as “B (50≤percent of modification <70%)”. For the same compound, the IC50 in experiment [4] is ≤ 500 nM; in the experiment with pERK in NCI-H358 cells, 100 to 1000 nM.

`C=CC(=O)N1CC[C@@H](Oc2nc(OC[C@@]34CCCN3C[C@H](F)C4)nc3cc(-c4ccc(F)c5sc(N)c(C#N)c45)c(C#N)cc23)[C@@H]1COC` [Compound 128]: the “GppNHp-KRAS G12C percent of modification” value in experiment [1] is given as “D (percent of modification <10%)”. The “GTP-KRAS G12C percent of modification” value in experiment [2] is recorded as “D (percent of modification <10%)”. Besides, the “GDP-KRAS G12C percent of modification” value in experiment [3] is on record as “C (10%≤modification <50%)”. Further, the values for the half-maximal inhibitory concentration (IC50) (in experiment [4]; with pERK in NCI-H358 cells) were > 20000 nM and > 1000 nM, respectively.

On to `C=CC(=O)N1CC[C@@H](Oc2nc(OC[C@@]34CCCN3C[C@H](F)C4)nc3c(Cl)c(-c4ccc(F)c5sc(N)c(C#N)c45)ncc23)[C@@H]1COC` [Compound 129], for which, in experiment [1], the “GppNHp-KRAS G12C percent of modification” value is on record as “A (percent of modification ≥70%)”. The “GTP-KRAS G12C percent of modification” value in experiment [2] was “C (10%≤modification <50%)”. Besides, the “GDP-KRAS G12C percent of modification” value in experiment [3] was “B (50≤percent of modification <70%)”. In addition, the IC50 in experiment [4] was ≤ 500 nM; in the experiment with pERK in NCI-H358 cells, 100 to 1000 nM.
